Read-outs that look alike come from different tables or passages of the source.
Tests used:
[1] = biological target: T1, triton-extracted alpha-synuclein from PD Tissue (Homo sapiens, UniProt P37840); assay: Alpha-synuclein tissue homogenate binding assay (Assay 1), displacement of [^3H]-1000; settings: for Selectivity ratio (Assay 2/Assay 1): Aβ Tissue Ki / α-synuclein Tissue Ki; for Ki: read-out: α-synuclein Tissue Ki (Assay 1)
T1 construct: tissue Analytic Biological Services Inc; host or cells: human PD temporal cortex grey matter, Triton X-100 insoluble pellet
Procedure: Frozen human brain tissues from PD patients were purchased from Analytic Biological Services Inc. The samples were post-mortem tissues from donors with clinical diagnosis of late stage of PD. Alpha-synuclein, tau and amyloid burden was determined through a combination of immunohistochemistry on frozen thin coronal sections, as well as alpha Lisa-based quantification of protein levels in a detergent insoluble protein fraction. A tissue sample of temporal cortex was identified from one donor as having moderate to high alpha-synuclein burden, low amyloid and minimal to no tau pathology. The detergent insoluble fraction of temporal cortex from this patient was used to support homogenate binding studies. Grey matter was dissected out of the temporal cortex tissue with a dissecting blade and minced with fine dissecting scissors. […] Homogenates were centrifuged at 100,000×g for 45 minutes. The pellet was resuspended in TBS-TX buffer, using a Polytron at highest setting for 30 seconds at 4° C. Homogenates were centrifuged at 100,000×g for 45 minutes and the pellet was resuspended in TBS-TX buffer. A BCA protein assay was performed on the final homogenate to determine the protein concentration. […] For displacement a-synuclein binding assay, compounds and control were solvated in dimethyl sulfoxide (DMSO) and transferred using focused acoustic energy by an Echo 655 liquid handling instrument (Beckman Coulter, Indianapolis, IN) into designated wells of uniquely bar coded 96-well v-bottom low binding polypropylene microplates (Thermo Scientific, 249946). Compound dose response curves were prepared in a 10-point, 3-fold fashion within columns 2-11 of the microplate from high to low compound concentrations. […] Liquid-handling steps for dispensing insoluble fractions of PD brain homogenates and radioligand were performed using a Bravo automated liquid handling platform equipped with a 96LT disposable tip head (Agilent Technologies, Santa Clara. CA). […] The incubation was terminated by rapid filtration through UniFilter-96 GF/C microplates (pre-treated for 30 minutes with 0.2% Polyethylenimine at 4° C.) by using a FilterMate Harvester (PerkinElmer). […] The bottom of each UniFilter-96 GF/C microplate was adhesively sealed (PerkinElmer 6005199) prior to the addition of 50 μL MicroScint-20 liquid scintillation cocktail (PerkinElmer 6013621) to each well. A clear adhesive seal (TopSeal-A PLUS, PerkinElmer 6050185) was then applied to the top of each microplate and counted 1 minute/well on MicroBeta^2 system (PerkinElmer.

[2] = biological target: aggregated beta amyloid in AD tissue (Homo sapiens, UniProt P05067); assay: Competitive radioligand binding to pathological aggregated beta amyloid in AD tissue (Assay 2), displacement of [^3H]-105; settings: Aβ-rich AD frontal cortex homogenate, [^3H]-105, Kd 11.0 nM
Sequence of aggregated beta amyloid in AD tissue (P05067 672-711 limits assumed): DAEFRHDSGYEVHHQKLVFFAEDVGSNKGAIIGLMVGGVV
Procedure: Frozen human brain samples of Alzheimer's disease (AD) were purchased from Analytic Biological Services Inc. The samples were post-mortem tissue from donors with clinical diagnosis of AD and much of the white matter was dissected out of the frontal cortex in order to enrich the tissue preparations for gray matter. Brain homogenates of gray matter enriched frontal cortex were prepared by homogenizing the tissue in ice cold Phosphate Buffered Saline (PBS), pH 7.4 at 80 mg wet weight tissue per 1 ml for 45 seconds at 4° C., on setting 16 of Polytron. The homogenate was further diluted with ice cold PBS to 30 mg wet weight tissue per 1 ml and homogenized for an additional minute as described above. Homogenates were aliquoted in 5 ml/tube and stored at −70° C. until use.
Radioligand [^3H]-105, prepared as described in ACS Med. Chem. Lett., Vol. 2, pages 498-502, was used in this assay.
For Assay 2 unlabeled test compounds were dissolved in DMSO at 10 mM. Dilutions of tests compounds to various concentrations were made in 100% DMSO at 1000× final assay concentration and 0.225 μl aliquots were dispensed into assay plates. Brain homogenates were diluted to 0.5 mg/ml from original 30 mg/ml volume in Assay Buffer, and 200 μl were added to the assay plate for a final concentration of 100 ug wet weight/assay well. [^3H]-105 was prepared at 10× final concentration in Assay Buffer plus 20% DMSO and 25 μl was added to the assay plate for final assay concentration of 3.0 nM. The plates were incubated at 37° C. for 90 minutes. Unbound and bound ligand were separated by filtration of bound onto GF/B filter plates (pre-treated for 30 min with 0.1% PEI) using a Packard Filtermate and washing away unbound with 2.5 mil ice cold 5 mM Tris at pH 7.4. Filter plates were dried for 1 hr at 57° C. and 50 μl Microscint was added to each well of the plate. The plates were counted for ^3H cpm for 1 min per well using PerkinElmer TopCount.

[3] = insoluble fraction of PD brain homogenate, [^3H]-1000 3.0 nM, Kd 0.90 nM

Compound | Selectivity ratio (Assay 2/Assay 1) [1] | Ki [1, 3] [nM] | Ki [2] [nM] | Ki [1] [nM] | Kd ([1]; radioligand [^3H]-1000, PD brain insoluble fraction) [nM]
COC[C@H]1CN(c2ncc(/C=C/c3ccc(-n4ccnc4)nc3)cn2)CCN1c1ncccn1 [Example 2, (R,E)-5-(2-(6-(1H-imidazol-1-yl)pyridin-3-yl)vinyl)-2-(3-(methoxymethyl)-4-(pyrimidin-2-yl)piperazin-1-yl)pyrimidine] | 13333 | 0.9 | ≥ 12000 |  | 
COC[C@H]1CN(c2ccccn2)CCN1c1ncc(/C=C/c2ccc(-n3cnnc3)nc2)cn1 [Example 5, (R,E)-5-(2-(6-(4H-1,2,4-triazol-4-yl)pyridin-3-yl)vinyl)-2-(2-(methoxymethyl)-4-(pyridin-2-yl)piperazin-1-yl)pyrimidine] | 7500 | 1.6 | ≥ 12000 |  | 
COCCOC[C@H]1CN(c2ccccn2)CCN1c1ncc(/C=C/c2ccc(-n3ccnc3)nc2)cn1 [Example 6, (R,E)-5-(2-(6-(1H-imidazol-1-yl)pyridin-3-yl)vinyl)-2-(2-((2-methoxyethoxy)methyl)-4-(pyridin-2-yl)piperazin-1-yl)pyrimidine] | 100 | 1.8 | 180 |  | 
COC[C@H]1CN(c2ncc(/C=C/c3ccc(-n4ccnc4)nc3)cn2)CCN1c1ncc(CO)cn1 [Example 7, (R,E)-(2-(4-(5-(2-(6-(1H-imidazol-1-yl)pyridin-3-yl)vinyl)pyrimidin-2-yl)-2-(methoxymethyl)piperazin-1-yl)pyrimidin-5-yl)methanol] | 436 |  | 480 | 1.1 | 
COC[C@H]1CN(c2ncc(/C=C/c3ccc(-n4ccnc4)nc3)cn2)CCN1c1ncc(CF)cn1 [Example 8, (R,E)-5-(2-(6-(1H-imidazol-1-yl)pyridin-3-yl)vinyl)-2-(4-(5-(fluoromethyl)pyrimidin-2-yl)-3-(methoxymethyl)piperazin-1-yl)pyrimidine] | 10909 | 1.1 | ≥ 12000 |  | 
COCc1cnc(N2CCN(c3ncc(/C=C/c4ccc(-n5ccnc5)nc4)cn3)[C@@H](COC)C2)nc1 [Example 9, (R,E)-5-(2-(6-(1H-imidazol-1-yl)pyridin-3-yl)vinyl)-2-(2-(methoxymethyl)-4-(5-(methoxymethyl)pyrimidin-2-yl)piperazin-1-yl)pyrimidine] | 15000 | 0.8 | ≥ 12000 |  | 
OC[C@H]1CN(c2ncc(C#Cc3ccc(-n4ccnc4)nc3)cn2)CCN1c1ncccn1 [Example 10, (R)-(4-(5-((6-(1H-imidazol-1-yl)pyridin-3-yl)ethynyl)pyrimidin-2-yl)-1-(pyrimidin-2-yl)piperazin-2-yl)methanol] | 2449 |  | ≥ 12000 | 4.9 | 
COC[C@H]1CN(c2ncc(C#Cc3ccc(-n4ccnc4)nc3)cn2)CCN1c1ncccn1 [Example 11, (R)-5-((6-(1H-imidazol-1-yl)pyridin-3-yl)ethynyl)-2-(3-(methoxymethyl)-4-(pyrimidin-2-yl)piperazin-1-yl)pyrimidine] | 10909 | 1.1 | ≥ 12000 |  | 
COC[C@H]1CN(c2cc(F)ncn2)CCN1c1ncc(/C=C/c2ccc(-n3ccnc3)nc2)cn1 [Example 13, (R,E)-5-(2-(6-(1H-imidazol-1-yl)pyridin-3-yl)vinyl)-2-(4-(6-fluoropyrimidin-4-yl)-2-(methoxymethyl)piperazin-1-yl)pyrimidine] | 12000 | 1 | ≥ 12000 |  | 
COC[C@H]1CN(c2cc(Cl)ncn2)CCN1c1ncc(/C=C/c2ccc(-n3ccnc3)nc2)cn1 [Example 14, (R,E)-5-(2-(6-(1H-imidazol-1-yl)pyridin-3-yl)vinyl)-2-(4-(6-chloropyrimidin-4-yl)-2-(methoxymethyl)piperazin-1-yl)pyrimidine] | 9231 | 1.3 | ≥ 12000 |  | 
OC[C@H]1CN(c2cc(F)ncn2)CCN1c1ncc(/C=C/c2ccc(-n3ccnc3)nc2)cn1 [Example 15, (R,E)-(1-(5-(2-(6-(1H-imidazol-1-yl)pyridin-3-yl)vinyl)pyrimidin-2-yl)-4-(6-fluoropyrimidin-4-yl)piperazin-2-yl)methanol] | 12000 | 1 | ≥ 12000 |  | 
COC[C@H]1CN(c2ncc(C#Cc3cnc(-c4cnn(CCF)c4)nc3)cn2)CCN1c1ncc(F)cn1 [Example 88, (R)-5-fluoro-2-(4-(5-((2-(1-(2-fluoroethyl)-1H-pyrazol-4-yl)pyrimidin-5-yl)ethynyl)pyrimidin-2-yl)-2-(methoxymethyl)piperazin-1-yl)pyrimidine] |  | 0.99 |  |  | 
COC[C@H]1CN(c2ncc(C#Cc3cnc(-n4cnnc4)nc3)cn2)CCN1c1ccc(F)cn1 [Example 89, (R)-5-((2-(4H-1,2,4-triazol-4-yl)pyrimidin-5-yl)ethynyl)-2-(4-(5-fluoropyridin-2-yl)-3-(methoxymethyl)piperazin-1-yl)pyrimidine] |  | 2.59 |  |  | 
COC[C@H]1CN(c2ncc(C#Cc3ccc(-c4cnn(CCF)c4)nc3)cn2)CCN1c1ncc(F)cn1 [Example 90, (R)-5-fluoro-2-(4-(5-((6-(1-(2-fluoroethyl)-1H-pyrazol-4-yl)pyridin-3-yl)ethynyl)pyrimidin-2-yl)-2-(methoxymethyl)piperazin-1-yl)pyrimidine] |  | 1.82 |  |  | 
COC[C@H]1CN(c2ncc(C#Cc3cnc(-c4cnn(CCCF)c4)nc3)cn2)CCN1c1ncncn1 [Example 91, (R)-2-(4-(5-((2-(1-(3-fluoropropyl)-1H-pyrazol-4-yl)pyrimidin-5-yl)ethynyl)pyrimidin-2-yl)-2-(methoxymethyl)piperazin-1-yl)-1,3,5-triazine] |  | 2.44 |  |  | 
COC[C@H]1CN(c2ncc(C#Cc3ccc(-c4cnn(C)c4)nc3)cn2)CCN1c1ncc(OCCF)cn1 [Example 92, (R)-5-(2-fluoroethoxy)-2-(2-(methoxymethyl)-4-(5-((6-(1-methyl-1H-pyrazol-4-yl)pyridin-3-yl)ethynyl)pyrimidin-2-yl)piperazin-1-yl)pyrimidine] |  | 0.83 |  |  | 
FCCOC[C@H]1CN(c2ncc(C#Cc3cnc(-c4cnco4)nc3)cn2)CCN1c1ncccn1 [Example 93, (R)-5-(5-((2-(3-((2-fluoroethoxy)methyl)-4-(pyrimidin-2-yl)piperazin-1-yl)pyrimidin-5-yl)ethynyl)pyrimidin-2-yl)oxazole] |  | 3.06 |  |  | 
COC[C@H]1CN(c2ncc(C#Cc3cnc(-c4cnn(C)c4)nc3)cn2)CCN1c1cc(F)ncn1 [Example 94, (R)-2-(4-(6-fluoropyrimidin-4-yl)-3-(methoxymethyl)piperazin-1-yl)-5-((2-(1-methyl-1H-pyrazol-4-yl)pyrimidin-5-yl)ethynyl)pyrimidine] |  | 0.76 |  |  | 
Cn1cc(-c2ncc(C#Cc3cnc(N4CCN(c5ncncn5)[C@@H](COCF)C4)nc3)cn2)cn1 [Example 95, (R)-2-(2-((fluoromethoxy)methyl)-4-(5-((2-(1-methyl-1H-pyrazol-4-yl)pyrimidin-5-yl)ethynyl)pyrimidin-2-yl)piperazin-1-yl)-1,3,5-triazine] |  |  |  | 1.3 | 
Cn1cc(-c2ncc(C#Cc3cnc(N4CCN(c5ncncn5)C[C@H]4COCCF)nc3)cn2)cn1 [Example 96, (S)-2-(3-((2-fluoroethoxy)methyl)-4-(5-((2-(1-methyl-1H-pyrazol-4-yl)pyrimidin-5-yl)ethynyl)pyrimidin-2-yl)piperazin-1-yl)-1,3,5-triazine] |  | 5.51 |  |  | 
Cn1ccc(-c2ncc(C#Cc3cnc(N4CCN(c5ncc(F)cn5)[C@@H](COCCF)C4)nc3)cn2)n1 [Example 97, (R)-5-fluoro-2-(2-((2-fluoroethoxy)methyl)-4-(5-((2-(1-methyl-1H-pyrazol-3-yl)pyrimidin-5-yl)ethynyl)pyrimidin-2-yl)piperazin-1-yl)pyrimidine] |  |  |  | 4.31 | 
Cn1nccc1-c1ncc(C#Cc2cnc(N3CCN(c4ncncn4)[C@@H](COCCF)C3)nc2)cn1 [Example 98, (R)-2-(2-((2-fluoroethoxy)methyl)-4-(5-((2-(1-methyl-1H-pyrazol-5-yl)pyrimidin-5-yl)ethynyl)pyrimidin-2-yl)piperazin-1-yl)-1,3,5-triazine] |  | 1.96 |  |  | 
[^3H]-(S)-6-(1H-imidazol-1-yl)-N-(2-(2-methyl-4-(pyridin-2-yl)piperazin-1-yl)pyrimidin-5-yl)nicotinamide [[^3H]-1000, reference compound] |  |  |  |  | 0.9

— US20260224758A1, “ALPHA-SYNUCLEIN BINDERS AND METHODS OF USE” (Merck Sharp & Dohme LLC, priority 2023, published 2026)
